In patent US20040191289A1, “Compositions for controlling plant pathogenic bacterium and method of controlling plant pathogenic bacterium” (priority 2001, published 2004):

Tests used:
Pythium aphanidermatum = test: Antimicrobial test, mycelial growth on PSA medium (Test Example 1); type: cell-based; conditions: 20° C., 2 day incubation
Procedure: (§1) Each sample fungal flora pre-cultured in PSA medium was cut from the medium plate with a cork borer, and placed on a center of PSA medium containing each test compound at a predetermined concentration, dispensed in a Petri dish with an inner diameter of 8 cm. Immediately thereafter, the dish was allowed to stand in a thermostatic room set at 20° C. The diameters of the flora zones were measured after 2 day incubation. A mycelial growth rate is calculated according to the following equation. […] A theoretically expected value can be calculated according to the following formula derived from the so-called Colby's formula. In cases where an observed value is lower than the theoretically expected one obtained from the formula derived from the Colby's formula, the phytopathogenic microorganism-disinfecting composition of the present invention is synergistically effective in combating and/or eliminating phytopathogenic microorganisms.

Pythium spinosum = test: as above; type: cell-based; conditions: 20° C., 2 day incubation
Procedure: as §1

[1] = tested on: Pythium Damping-off Disease of Rice Seedlings; test: Test for prophylactic efficacy against Pythium damping-off disease of rice seedlings (1) (Test Example 2); type: in vivo; conditions: soil irrigation, 29 days after sowing
Procedure: (§2) Polyvinyl chloride cups (each 10 cm square) were filled with pathogen-inoculated soil as bed soil, and seeded with rice seeds. Next, the polyvinyl chloride cup was irrigated using a pipette with a test solution (27.8 ml) prepared by adjusting each active ingredient compound to a predetermined concentration, and then covered with soil. After kept for 3 days in a thermostatic room set at 32° C., the plants were grown in a greenhouse. Ten days after sowing, the plants were exposed to a cold temperature during night. Twenty nine days after sowing, the disease incidence area was examined. In these cases, each theoretically expected value obtained from the aforementioned formula derived from the Colby's formula is shown in parentheses in Table 3.

[2] = tested on: Pythium Damping-off Disease of Rice Seedlings; test: Test for prophylactic efficacy against Pythium damping-off disease of rice seedlings (2) (Test Example 3); type: in vivo; conditions: soil irrigation, 35 days after sowing
Procedure: as §2, with “AS resin cases” for “Polyvinyl chloride cups”, “15×11 cm)” for “10 cm square)”, “AS resin case” for “polyvinyl chloride cup”, “(50” for “(27.8”, “night for 3 days. Thirty five” for “night. Twenty nine”, “4.” for “3.”

[3] = tested on: Aphanomyces cochlioides (MAFF No. 305548); test: Antimicrobial test, mycelial growth on PSA medium (Test Example 4); type: cell-based; conditions: 20° C., 3 day incubation
Procedure: (§3) Each sample fungal flora pre-cultured in PSA medium was cut from the medium plate with a cork borer, and placed on a center of PSA medium containing each test compound at a predetermined concentration, dispensed in a Petri dish with an inner diameter of 8 cm. Immediately thereafter, the dish was allowed to stand in a thermostatic room set at 20° C. […] In cases where an observed value is lower than the theoretically expected one derived from the Colby's formula, the phytopathogenic microorganism-disinfecting composition of the present invention is synergistically effective in combating and/or eliminating phytopathogenic microorganisms.

[4] = tested on: Pythium debaryanum (MAFF No. 305462); test: as above; type: cell-based; conditions: 20° C., 1 day incubation
Procedure: as §3

Cc1ccc(-c2c(Cl)nc(C#N)n2S(=O)(=O)N(C)C)cc1 [Compound No. 1, 4-chloro-2-cyano-1-dimethylsulfamoyl-5-(4-methyl-phenyl)imidazole]
Mycelial Growth Rate (%) (Pythium aphanidermatum; Compound No. 1 25 ppm alone): 21.1%
Mycelial Growth Rate (%) (Pythium aphanidermatum; Compound No. 1 50 ppm alone): 6.3%
Mycelial Growth Rate (%) (Pythium aphanidermatum; Compound No. 1 100 ppm alone): 9.4%
Mycelial Growth Rate (%) (Pythium spinosum; Compound No. 1 25 ppm alone): 14.4%
Mycelial Growth Rate (%) (Pythium spinosum; Compound No. 1 50 ppm alone): 9.3%
Mycelial Growth Rate (%) (Pythium spinosum; Compound No. 1 100 ppm alone): 2.1%
Damping-off Incidence Area Rate (%) ([1]; Compound No. 1 278 g/ha alone): 67%
Damping-off Incidence Area Rate (%) ([2]; Compound No. 1 139 g/ha alone): 50%
Mycelial Growth Rate (%) ([3]; Compound No. 1 25 ppm alone): 52%
Mycelial Growth Rate (%) ([3]; Compound No. 1 50 ppm alone): 29%
Mycelial Growth Rate (%) ([3]; Compound No. 1 100 ppm alone): 11%
Mycelial Growth Rate (%) ([4]; Compound No. 1 25 ppm alone): 59%
Mycelial Growth Rate (%) ([4]; Compound No. 1 50 ppm alone): 49%
Mycelial Growth Rate (%) ([4]; Compound No. 1 100 ppm alone): 44%

Cc1cc(O)no1 [Hymexazol, 5-methylisoxazol-3-ol]
Mycelial Growth Rate (%) (Pythium aphanidermatum; Hymexazol 25 ppm alone): 22.7%
Mycelial Growth Rate (%) (Pythium aphanidermatum; Hymexazol 50 ppm alone): 16.4%
Mycelial Growth Rate (%) (Pythium aphanidermatum; Hymexazol 100 ppm alone): 6.3%
Mycelial Growth Rate (%) (Pythium spinosum; Hymexazol 25 ppm alone): 27.8%
Mycelial Growth Rate (%) (Pythium spinosum; Hymexazol 50 ppm alone): 21.6%
Mycelial Growth Rate (%) (Pythium spinosum; Hymexazol 100 ppm alone): 23.7%
Damping-off Incidence Area Rate (%) ([1]; Hymexazol 1,040 g/ha alone): 50%
Damping-off Incidence Area Rate (%) ([2]; Hymexazol 1,040 g/ha alone (Compound No. 1 0 ppm)): 90%
Mycelial Growth Rate (%) ([3]; Hymexazol 25 ppm alone): 53%
Mycelial Growth Rate (%) ([3]; Hymexazol 50 ppm alone): 43%
Mycelial Growth Rate (%) ([3]; Hymexazol 100 ppm alone): 43%
Mycelial Growth Rate (%) ([4]; Hymexazol 25 ppm alone): 89%
Mycelial Growth Rate (%) ([4]; Hymexazol 50 ppm alone): 84%
Mycelial Growth Rate (%) ([4]; Hymexazol 100 ppm alone): 67%
